Source: PubChem BioAssay AID330 (DTP/NCI, 2004)
“And” between values parts separate entries of the source, which are not always exact repeats. Equal entries are not always repeated. Inconclusive results and toxic doses are left out. Peptide text beside a SMILES is read from it.

System: P388 leukemia ip, CD2F1 mice, survival T/C
Experiment: NCI In Vivo Anticancer Drug Screen. Data for tumor model P388 Leukemia (intraperitoneal) in CD2F1 (CDF1) mice
Conditions: endpoint: median survival time, higher = longer survival
Outline: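 Mice carrying the transplanted tumor received test compound or vehicle. Survival was recorded in each group, and the value is the treated-group measurement divided by that of the vehicle-treated control group.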

[1] = dose: 60.0 mg/kg/injection, schedule: Q01DX005 (ip), vehicle: Klucel (hydroxypropylcellulose) (HPC)
[2] = dose: 120.0 mg/kg/injection, schedule: Q01DX005 (ip), vehicle: Klucel (hydroxypropylcellulose) (HPC)
[3] = dose: 240.0 mg/kg/injection, schedule: Q01DX005 (ip), vehicle: Klucel (hydroxypropylcellulose) (HPC)

`COc1cc2c(cc1OC)C(N)CCC2` (centres undefined) was tested. Which T/C (dose: 6.25 mg/kg/injection, schedule: Q01DX009 (ip), vehicle: water) did it give?
Its T/C is 104 % of control.

What about the T/C (dose: 12.5 mg/kg/injection, schedule: Q01DX009 (ip), vehicle: water) of the same compound?
The T/C was 96 % of control.

What about the T/C (dose: 25.0 mg/kg/injection, schedule: Q01DX009 (ip), vehicle: water) of the same compound?
The T/C was 99 % of control.

What about the T/C (dose: 50.0 mg/kg/injection, schedule: Q01DX009 (ip), vehicle: water) of the same compound?
Its T/C is 96 % of control.

And the T/C (dose: 100.0 mg/kg/injection, schedule: Q01DX009 (ip), vehicle: water)?
The T/C was 101 % of control.

With `CC(NC(=O)C(Cc1ccccc1)NC(=O)C(N)CCCN=C(N)N)C(=O)O` (stereo not drawn) (H-Arg-Phe-Ala-OH; configuration not given here) as the compound, how does the T/C (dose: 50.0 mg/kg/injection, schedule: Q01DX005 (ip), vehicle: saline) read?
The T/C was 102 % of control.

What about the T/C (dose: 100.0 mg/kg/injection, schedule: Q01DX005 (ip), vehicle: saline) of the same compound?
The T/C was 101 % of control.

What about the T/C (dose: 200.0 mg/kg/injection, schedule: Q01DX005 (ip), vehicle: saline) of the same compound?
Its T/C is 101 % of control.

Which results are given for `COc1ccc(C(NC(N)=O)c2cc3c(cc2OC(C)=O)OCO3)cc1` (centres undefined)?
T/C [1]: 98 % of control; T/C [2]: 92 % of control; T/C [3]: 93 % of control

How did the T/C [1] turn out when `CC1OC(c2c(Cl)cccc2[N+](=O)[O-])OC1C` (centres undefined) was run?
The T/C was 99 % of control.

And the T/C [2]?
The T/C was 91 % of control.

What about the T/C [3] of the same compound?
The T/C was 92 % of control.

For `CC(C)=CCCC1(C)C=Cc2c(ccc3c(C)noc23)O1` (centres undefined), which T/C (dose: 50.0 mg/kg/injection, schedule: Q01DX005 (ip), vehicle: saline with Tween-80) is on record?
The T/C was 100 % of control.

What about the T/C (dose: 100.0 mg/kg/injection, schedule: Q01DX005 (ip), vehicle: saline with Tween-80) of the same compound?
The T/C was 89 % of control.

What about the T/C (dose: 200.0 mg/kg/injection, schedule: Q01DX005 (ip), vehicle: saline with Tween-80) of the same compound?
Its T/C is 110 % of control.

For `COc1cccc2c1C(=O)c1c(O)c3c(c(O)c1C2=O)C[C@@](O)(/C(C)=N/NC(=O)c1ccccc1)C[C@@H]3OC1CC(N)C(O)C(C)O1` (some centres undefined), which T/C (dose: 0.12 mg/kg/injection, schedule: Q01DX009 (ip), vehicle: water) is on record?
The T/C was 99 % of control and 104 % of control and 89 % of control.

And the T/C (dose: 0.5 mg/kg/injection, schedule: Q01DX005 (ip), vehicle: suspension in saline)?
Its T/C is 120 % of control.

What about the T/C (dose: 0.5 mg/kg/injection, schedule: Q01DX005 (iv), vehicle: suspension in saline) of the same compound?
Its T/C is 109 % of control.

And the T/C (dose: 0.65 mg/kg/injection, schedule: Q01DX009 (ip), vehicle: saline)?
The T/C was 168 % of control.

What about the T/C (dose: 1.0 mg/kg/injection, schedule: Q01DX005 (iv), vehicle: suspension in saline) of the same compound?
The T/C was 110 % of control.

What about the T/C (dose: 1.0 mg/kg/injection, schedule: Q01DX009 (ip), vehicle: other) of the same compound?
Its T/C is 150 % of control.

And the T/C (dose: 1.08 mg/kg/injection, schedule: Q01DX009 (ip), vehicle: saline)?
Its T/C is 172 % of control.

What about the T/C (dose: 1.56 mg/kg/injection, schedule: Q04DX003 (ip), vehicle: saline) of the same compound?
Its T/C is 177 % of control.

What about the T/C (dose: 1.8 mg/kg/injection, schedule: Q01DX009 (ip), vehicle: saline) of the same compound?
The T/C was 190 % of control.

What about the T/C (dose: 2.0 mg/kg/injection, schedule: Q01DX005 (iv), vehicle: suspension in saline) of the same compound?
Its T/C is 108 % of control.

What about the T/C (dose: 2.0 mg/kg/injection, schedule: Q01DX009 (ip), vehicle: other) of the same compound?
Its T/C is 166 % of control.

And the T/C (dose: 2.0 mg/kg/injection, schedule: Q04DX003 (ip), vehicle: water)?
Its T/C is 160 % of control.

What about the T/C (dose: 3.0 mg/kg/injection, schedule: Q01DX009 (ip), vehicle: saline) of the same compound?
The T/C was 213 % of control.

What about the T/C (dose: 3.0 mg/kg/injection, schedule: Q04DX003 (ip), vehicle: saline) of the same compound?
Its T/C is 150 % of control.

What about the T/C (dose: 3.0 mg/kg/injection, schedule: Q04DX003 (ip), vehicle: water) of the same compound?
Its T/C is 115 % of control.

What about the T/C (dose: 3.13 mg/kg/injection, schedule: Q04DX003 (ip), vehicle: saline) of the same compound?
Its T/C is 176 % of control.

And the T/C (dose: 3.2 mg/kg/injection, schedule: Q01DX001 (ip), vehicle: water)?
Its T/C is 153 % of control.

And the T/C (dose: 3.24 mg/kg/injection, schedule: Q04DX003 (ip), vehicle: water)?
Its T/C is 153 % of control.

What about the T/C (dose: 4.0 mg/kg/injection, schedule: Q01DX005 (ip), vehicle: saline) of the same compound?
Its T/C is 181 % of control.

And the T/C (dose: 4.0 mg/kg/injection, schedule: Q01DX005 (iv), vehicle: saline)?
Its T/C is 104 % of control.

And the T/C (dose: 4.0 mg/kg/injection, schedule: Q01DX009 (ip), vehicle: other)?
Its T/C is 175 % of control.

What about the T/C (dose: 4.2 mg/kg/injection, schedule: Q01DX001 (ip), vehicle: water) of the same compound?
Its T/C is 158 % of control.

What about the T/C (dose: 5.0 mg/kg/injection, schedule: Q01DX001 (ip), vehicle: saline) of the same compound?
Its T/C is 168 % of control.

What about the T/C (dose: 5.0 mg/kg/injection, schedule: Q04DX003 (ip), vehicle: saline) of the same compound?
Its T/C is 163 % of control.

What about the T/C (dose: 5.3 mg/kg/injection, schedule: Q01DX009 (ip), vehicle: saline) of the same compound?
Its T/C is 157 % of control.

And the T/C (dose: 5.4 mg/kg/injection, schedule: Q04DX003 (ip), vehicle: water)?
Its T/C is 171 % of control.

And the T/C (dose: 5.6 mg/kg/injection, schedule: Q01DX001 (ip), vehicle: water)?
The T/C was 165 % of control.

What about the T/C (dose: 6.25 mg/kg/injection, schedule: Q04DX003 (ip), vehicle: saline) of the same compound?
Its T/C is 205 % of control.

And the T/C (dose: 7.5 mg/kg/injection, schedule: Q01DX001 (ip), vehicle: water)?
The T/C was 177 % of control.

And the T/C (dose: 8.0 mg/kg/injection, schedule: Q01DX001 (ip), vehicle: saline)?
The T/C was 163 % of control.

And the T/C (dose: 8.0 mg/kg/injection, schedule: Q01DX005 (ip), vehicle: saline)?
Its T/C is 229 % of control.

What about the T/C (dose: 8.0 mg/kg/injection, schedule: Q01DX005 (ip), vehicle: suspension in saline) of the same compound?
Its T/C is 174 % of control.

And the T/C (dose: 8.0 mg/kg/injection, schedule: Q01DX005 (iv), vehicle: suspension in saline)?
Its T/C is 151 % of control.

And the T/C (dose: 8.0 mg/kg/injection, schedule: Q01DX009 (ip), vehicle: other)?
Its T/C is 189 % of control.

What about the T/C (dose: 8.0 mg/kg/injection, schedule: Q01DX009 (ip), vehicle: saline) of the same compound?
The T/C was 90 % of control.

What about the T/C (dose: 8.0 mg/kg/injection, schedule: Q04DX003 (ip), vehicle: saline) of the same compound?
Its T/C is 163 % of control.

What about the T/C (dose: 8.0 mg/kg/injection, schedule: Q04DX003 (ip), vehicle: water) of the same compound?
Its T/C is 116 % of control and 190 % of control and 215 % of control.

And the T/C (dose: 8.3 mg/kg/injection, schedule: Q01DX009 (ip), vehicle: saline)?
Its T/C is 90 % of control.

What about the T/C (dose: 9.0 mg/kg/injection, schedule: Q04DX003 (ip), vehicle: water) of the same compound?
Its T/C is 175 % of control.

What about the T/C (dose: 10.0 mg/kg/injection, schedule: Q01DX001 (ip), vehicle: clinical formulation) of the same compound?
Its T/C is 160 % of control.

And the T/C (dose: 10.0 mg/kg/injection, schedule: Q01DX001 (ip), vehicle: water)?
Its T/C is 181 % of control.

What about the T/C (dose: 12.0 mg/kg/injection, schedule: Q01DX001 (ip), vehicle: clinical formulation) of the same compound?
The T/C was 164 % of control.

And the T/C (dose: 12.5 mg/kg/injection, schedule: Q04DX003 (ip), vehicle: saline)?
The T/C was 187 % of control.

What about the T/C (dose: 13.3 mg/kg/injection, schedule: Q01DX001 (ip), vehicle: saline) of the same compound?
The T/C was 113 % of control.

What about the T/C (dose: 13.3 mg/kg/injection, schedule: Q04DX003 (ip), vehicle: saline) of the same compound?
Its T/C is 109 % of control.

And the T/C (dose: 14.0 mg/kg/injection, schedule: Q01DX001 (ip), vehicle: clinical formulation)?
Its T/C is 167 % of control.

And the T/C (dose: 16.0 mg/kg/injection, schedule: Q01DX001 (ip), vehicle: clinical formulation)?
The T/C was 188 % of control.

What about the T/C (dose: 16.0 mg/kg/injection, schedule: Q01DX005 (iv), vehicle: saline) of the same compound?
Its T/C is 211 % of control.

And the T/C (dose: 16.0 mg/kg/injection, schedule: Q04DX003 (ip), vehicle: water)?
Its T/C is 180 % of control and 318 % of control.

What about the T/C (dose: 18.0 mg/kg/injection, schedule: Q01DX001 (ip), vehicle: clinical formulation) of the same compound?
The T/C was 179 % of control.

What about the T/C (dose: 22.2 mg/kg/injection, schedule: Q01DX001 (ip), vehicle: saline) of the same compound?
Its T/C is 95 % of control.

What about the T/C (dose: 24.0 mg/kg/injection, schedule: Q04DX003 (ip), vehicle: water) of the same compound?
The T/C was 171 % of control.

And the T/C (dose: 32.0 mg/kg/injection, schedule: Q04DX003 (ip), vehicle: water)?
Its T/C is 163 % of control and 233 % of control.

What about the T/C (dose: 48.0 mg/kg/injection, schedule: Q04DX003 (ip), vehicle: water) of the same compound?
Its T/C is 117 % of control.

What about the T/C (dose: 64.0 mg/kg/injection, schedule: Q04DX003 (ip), vehicle: water) of the same compound?
Its T/C is 109 % of control and 114 % of control.

And the T/C (dose: 96.0 mg/kg/injection, schedule: Q04DX003 (ip), vehicle: water)?
The T/C was 89 % of control.

Which results are given for `CC1(n2[nH]c(=O)n(-c3ccccc3)c2=O)Cn2c(=O)n(-c3ccccc3)c(=O)n2-c2ccccc21` (centres undefined)?
T/C (dose: 50.0 mg/kg/injection, schedule: Q01DX005 (ip), vehicle: Klucel (hydroxypropylcellulose) (HPC)): 101 % of control; T/C (dose: 100.0 mg/kg/injection, schedule: Q01DX005 (ip), vehicle: Klucel (hydroxypropylcellulose) (HPC)): 96 % of control; T/C (dose: 200.0 mg/kg/injection, schedule: Q01DX005 (ip), vehicle: Klucel (hydroxypropylcellulose) (HPC)): 108 % of control

With `C/C(=N\N=C(/[Se])N1CC2CCC(CC2)C1)c1ccccn1` as the compound, how does the T/C (dose: 1.56 mg/kg/injection, schedule: Q01DX009 (ip), vehicle: Klucel (hydroxypropylcellulose) (HPC)) read?
The T/C was 100 % of control.

What about the T/C (dose: 3.12 mg/kg/injection, schedule: Q01DX009 (ip), vehicle: Klucel (hydroxypropylcellulose) (HPC)) of the same compound?
Its T/C is 124 % of control.

What about the T/C (dose: 12.5 mg/kg/injection, schedule: Q01DX009 (ip), vehicle: Klucel (hydroxypropylcellulose) (HPC)) of the same compound?
Its T/C is 98 % of control and 97 % of control.
